Values quoted from earlier work as cited in patent US20020146694A1, “Functionating genomes with cross-species coregulation” (priority 2001, published 2002).

System: wild type yeast cells
Settings: 10 micrograms/ml

Compound: C[C@H]1c2cccc(O)c2C(=O)C2=C(O)[C@]3(O)C(=O)C(C(N)=O)=C(O)[C@@H](N(C)C)[C@@H]3[C@@H](O)[C@@H]21 [doxycycline]
- effect on the growth rate: no significant effect
